Test results: the NIST ThermoML archive (doi:10.1021/je0301951)

Experiment: wn = mass fraction of the nth substance listed
Details: Liquid, w2 = 1

Compound | binary diffusion coefficient (293 K) | binary diffusion coefficient (298 K) | binary diffusion coefficient (303 K) | binary diffusion coefficient (308 K) | binary diffusion coefficient (313 K)
O=C=O [carbon dioxide] + O | 1.71e-09 m2/s | 1.9e-09 m2/s | 2.13e-09 m2/s | 2.47e-09 m2/s | 2.86e-09 m2/s
[N-]=[N+]=O [nitrous oxide] + O | 1.54e-09 m2/s | 1.8e-09 m2/s | 1.98e-09 m2/s | 2.29e-09 m2/s | 2.58e-09 m2/s
